Test results published in ChEMBL document CHEMBL3885881, “DrugMatrix”.

Species on record: Rattus norvegicus
Assay: DrugMatrix - Regimen: Daily Repeat
Format: toxicity, organism-based, Sprague-Dawley
Set-up: regimen Daily Repeat, gender Male, age 6-8 weeks
Settings: in vivo, po, route oral GAVAGE, vehicle .5 % CMC; for URIC ACID / ALANINE AMINOTRANSFERASE / ALBUMIN / ALKALINE PHOSPHATASE / ASPARTATE AMINOTRANSFERASE / BLOOD UREA NITROGEN / CARBON DIOXIDE / CHLORIDE / CHOLESTEROL / CREATINE PHOSPHOKINASE / CREATININE / GLUCOSE / LACTATE DEHYDROGENASE / LIPASE / PHOSPHORUS / POTASSIUM / SODIUM / TOTAL BILIRUBIN / TOTAL PROTEIN: tissue Plasma; for ABSOLUTE BASOPHIL / ABSOLUTE EOSINOPHIL / ABSOLUTE LYMPHOCYTE / ABSOLUTE MONOCYTE / ABSOLUTE SEGMENTED NEUTROPHIL / BASOPHIL / EOSINOPHIL / ERYTHROCYTE COUNT / HEMATOCRIT / HEMOGLOBIN / LEUKOCYTE COUNT / LYMPHOCYTE / MEAN CORPUSCULAR HEMOGLOBIN / MEAN CORPUSCULAR HEMOGLOBIN CONCENTRATION / MEAN CORPUSCULAR VOLUME / MONOCYTE / NEUTROPHIL / NUCLEATED RED BLOOD CELLS / PLATELET COUNT: tissue Blood
[1] = 10 mg/kg, 120 h, dose level Low, time 5 day
[2] = 400 mg/kg, 72 h, dose level High, time 3 day
[3] = 400 mg/kg, 120 h, dose level High, time 5 day

## CC(C)(C#N)c1cc(Cn2cncn2)cc(C(C)(C)C#N)c1 [ANASTROZOLE]
10 mg/kg, 72 h, dose level Low, time 3 day
  URIC ACID: 1.33 mg/dL
[1]
  ABSOLUTE BASOPHIL: 0 CELLS/uL
  ABSOLUTE EOSINOPHIL: 0 CELLS/uL
  ABSOLUTE LYMPHOCYTE: 12980 CELLS/uL
  ABSOLUTE MONOCYTE: 0 CELLS/uL
  ABSOLUTE SEGMENTED NEUTROPHIL: 1020 CELLS/uL
  BASOPHIL: 0%
  EOSINOPHIL: 0%
  ERYTHROCYTE COUNT: 5.49 x10E6/uL
  HEMATOCRIT: 34.93%
  HEMOGLOBIN: 13.93 G/DL
  LEUKOCYTE COUNT: 14 x10E3/uL
  LYMPHOCYTE: 92.67%
  MEAN CORPUSCULAR HEMOGLOBIN: 25.4 pg
  MEAN CORPUSCULAR HEMOGLOBIN CONCENTRATION: 39.87 G/DL
  MEAN CORPUSCULAR VOLUME: 63.57 fL
  MONOCYTE: 0%
  NEUTROPHIL: 7.33%
  NUCLEATED RED BLOOD CELLS: 0 /100WBC
  PLATELET COUNT: 1087.67 x10E3/uL
  ALANINE AMINOTRANSFERASE: 48 u/L
  ALBUMIN: 4.1 G/DL
  ALKALINE PHOSPHATASE: 364.67 u/L
  ASPARTATE AMINOTRANSFERASE: 77.33 u/L
  BLOOD UREA NITROGEN: 18.33 mg/dL
  CARBON DIOXIDE: 26 mmol/L
  CHLORIDE: 103 MEQ/L
  CHOLESTEROL: 60.67 mg/dL
  CREATINE PHOSPHOKINASE: 224.33 u/L
  CREATININE: 0.14 mg/dL
  GLUCOSE: 146 mg/dL
  LACTATE DEHYDROGENASE: 164 u/L
  LIPASE: 9.33 u/L
  PHOSPHORUS: 13.6 mg/dL
  POTASSIUM: 7.31 MEQ/L
  SODIUM: 142.23 MEQ/L
  TOTAL BILIRUBIN: 0.2 mg/dL
  TOTAL PROTEIN: 5.87 G/DL
  URIC ACID: 1.9 mg/dL
[2]
  ABSOLUTE BASOPHIL: 0 CELLS/uL
  ABSOLUTE EOSINOPHIL: 0 CELLS/uL
  ABSOLUTE LYMPHOCYTE: 16859 CELLS/uL
  ABSOLUTE MONOCYTE: 135.33 CELLS/uL
  ABSOLUTE SEGMENTED NEUTROPHIL: 1372.33 CELLS/uL
  BASOPHIL: 0%
  EOSINOPHIL: 0%
  ERYTHROCYTE COUNT: 5.62 x10E6/uL
  HEMATOCRIT: 34.7%
  HEMOGLOBIN: 13.6 G/DL
  LEUKOCYTE COUNT: 18.37 x10E3/uL
  LYMPHOCYTE: 91.67%
  MEAN CORPUSCULAR HEMOGLOBIN: 24.17 pg
  MEAN CORPUSCULAR HEMOGLOBIN CONCENTRATION: 39.17 G/DL
  MEAN CORPUSCULAR VOLUME: 61.7 fL
  MONOCYTE: 0.67%
  NEUTROPHIL: 7.67%
  NUCLEATED RED BLOOD CELLS: 0.33 /100WBC
  PLATELET COUNT: 1228.33 x10E3/uL
  ALANINE AMINOTRANSFERASE: 89 u/L
  ALBUMIN: 4.27 G/DL
  ALKALINE PHOSPHATASE: 433 u/L
  ASPARTATE AMINOTRANSFERASE: 126 u/L
  BLOOD UREA NITROGEN: 17.33 mg/dL
  CARBON DIOXIDE: 28.33 mmol/L
  CHLORIDE: 98.33 MEQ/L
  CHOLESTEROL: 69.33 mg/dL
  CREATINE PHOSPHOKINASE: 255 u/L
  CREATININE: 0.3 mg/dL
  GLUCOSE: 143 mg/dL
  LACTATE DEHYDROGENASE: 237 u/L
  LIPASE: 11.33 u/L
  PHOSPHORUS: 11.7 mg/dL
  POTASSIUM: 7.49 MEQ/L
  SODIUM: 141.93 MEQ/L
  TOTAL BILIRUBIN: 0.17 mg/dL
  TOTAL PROTEIN: 5.87 G/DL
  URIC ACID: 1.83 mg/dL
[3]
  ABSOLUTE BASOPHIL: 0 CELLS/uL
  ABSOLUTE EOSINOPHIL: 0 CELLS/uL
  ABSOLUTE LYMPHOCYTE: 11924.33 CELLS/uL
  ABSOLUTE MONOCYTE: 19.67 CELLS/uL
  ABSOLUTE SEGMENTED NEUTROPHIL: 1989.33 CELLS/uL
  BASOPHIL: 0%
  EOSINOPHIL: 0%
  ERYTHROCYTE COUNT: 5.98 x10E6/uL
  HEMATOCRIT: 35.47%
  HEMOGLOBIN: 14.6 G/DL
  LEUKOCYTE COUNT: 13.93 x10E3/uL
  LYMPHOCYTE: 82%
  MEAN CORPUSCULAR HEMOGLOBIN: 24.43 pg
  MEAN CORPUSCULAR HEMOGLOBIN CONCENTRATION: 41.17 G/DL
  MEAN CORPUSCULAR VOLUME: 59.37 fL
  MONOCYTE: 0.33%
  NEUTROPHIL: 17.67%
  NUCLEATED RED BLOOD CELLS: 0.67 /100WBC
  PLATELET COUNT: 1447 x10E3/uL
  ALANINE AMINOTRANSFERASE: 478.67 u/L
  ALBUMIN: 4.53 G/DL
  ALKALINE PHOSPHATASE: 622.67 u/L
  ASPARTATE AMINOTRANSFERASE: 1130.67 u/L
  BLOOD UREA NITROGEN: 22 mg/dL
  CARBON DIOXIDE: 21.33 mmol/L
  CHLORIDE: 99.33 MEQ/L
  CHOLESTEROL: 88.33 mg/dL
  CREATINE PHOSPHOKINASE: 445.67 u/L
  CREATININE: 0.46 mg/dL
  GLUCOSE: 115 mg/dL
  LACTATE DEHYDROGENASE: 826.67 u/L
  LIPASE: 14.33 u/L
  PHOSPHORUS: 11.97 mg/dL
  POTASSIUM: 6.47 MEQ/L
  SODIUM: 142.23 MEQ/L
  TOTAL BILIRUBIN: 0.17 mg/dL
  URIC ACID: 2.23 mg/dL
